Several values for one entry are separate records, joined by “and”; a condition that tells them apart may be missing. Equal values may be shown once.
Tests used:
[1] = Photocatalytic conversion of diazirine, analysis via 19F NMR
Protocol: To an 8 ml crimp neck vial with a magnetic stirrer bar was added a solution of diazirine (100 µM, 10 µl of 10 mM DMSO stock) and photocatalyst (10 µM, 10 µl of 1 mM DMSO stock) in PBS (pH = 7.4, 1 ml). The vial was sealed and sparged with Ar for 10 min before being irradiated with 450 nm light (30 W LED; EvoluChem, PhotoRedOx Box) for 15 min. The solution was then spiked with p-(trifluoromethyl)benzoic acid as the internal standard (100 µM, chemical shift (δ) = −61.35 ppm) and analysed via ^19F NMR to determine the conversion of diazirine (δ = −64.23 ppm) to the carbinol product (δ = −76.64 ppm)[17]. Conversions are represented as the average of duplicate runs.

[2] = Stationary and time-resolved absorption and emission spectroscopy (photophysics); type: physicochemical
From the text: (§1) Details of the stationary and time-resolved absorption and emission spectroscopy procedures used for the mechanistic studies are given in Supplementary Section 3.3.

[3] = Phenyl azide S3 conversion via HPLC
Protocol: 3.2 Photocatalyst Screening
3.2.1 Phenyl azide conversion via HPLC
To an 8 mL crimp neck vial with magnetic stirrer bar was added a solution of phenyl azide S3 (1 mM, 10 µL of 100 mM DMSO stock) and photocatalyst (PC, 0.1 mM, 10 µL of 10 mM DMSO stock) in PBS pH = 7.4 (1 mL). The vial was sealed and sparged with Ar for 10 min before being irradiated with a 450 nm light (40W, EvoluChem, PhotoRedOx Box) for 15 min. […]
trifluoromethylbenzoic acid as the internal standard (1 mM) and analysed using analytical HPLC (see Section 2.5 for further details). Conversions were calculated using standard calibration curve of phenyl azide S3 vs. internal standard and are represented as the average of duplicate runs.
Calibration curve of phenyl azide S3 vs. internal standard
(also on this page, place not known: Normalised Intensity (Substrate/Standard))

[4] = cited from earlier work
[5] = system: HeLa cells; experiment: Cell viability assay (WST-1); type: cell-based; details: WST-1, 24 h incubation, Extended Data Fig. 5a
[6] = Transient absorption of 4 with substrates (triplet energy / electron transfer); type: physicochemical; details: GSH 50 mM
From the text: as §1

[7] = system: reporter HEK293T cells expressing cytoplasmic HaloTag–SNAP-tag fusion protein; experiment: Modified chloroalkane penetration assay (CAPA), HEK293T; type: in vitro ADME; details: 1 h pulse, flow cytometry, Extended Data Fig. 6b, representative data of two biological replicates
Protocol: (§2) CA–TMR-d12 and BG–SiR-d12 were prepared as described previously. HeLa or HEK293T cells were seeded onto 10 cm cell culture dishes and allowed to attach for 24 h under standard cell culture maintenance conditions. The culture medium was replaced with fresh DMEM (5 ml, high glucose) with 10% FCS without antibiotics followed by plasmid (pcDNA5-HaloTag-Pro30-SNAP-tag) transfection using Lipofectamine 3000 (Thermo) according to Supplementary Section 2.8. After 24 h, the transfected cells were trypsinized, seeded into 24-well cell culture plates (1 × 10^5 cells per well) and incubated again for 24 h. […] Cell pellets were resuspended in PBS (400 µl) and analysed via flow cytometry (FACS Fortessa). The mean fluorescence intensity (MFI) values in the TMR and Cy5 (SiR) channels of live cells were determined. […] Equation (2) below was used to determine the percentage fluorescence intensity:2 Fluorescenceintensity%=(photocatalyst−chloroalkaneMFITMR)−(photocatalystMFITMR)/(CA−NHBocMFITMR)−(photocatalystMFITMR)×100.

[8] = system: reporter HeLa cells expressing cytoplasmic HaloTag–SNAP-tag fusion protein; experiment: Modified chloroalkane penetration assay (CAPA), HeLa; type: in vitro ADME; details: modified pulse-chase CAPA, 1 h pulse in FluoroBrite DMEM, chase CA–TMR-d12 15 min, BG–SiR-d12 1 µM for normalisation, flow cytometry, Fig. 4f, three biological replicates (mean ± SD)
Protocol: as §2

[9] = PBS pH 7.4, diazirine 100 µM, photocatalyst 10 µM, 450 nm LED 15 min, average of duplicate runs
[10] = PBS pH 7.4, S3 1 mM, photocatalyst 0.1 mM, 450 nm 15 min, HPLC calibration curve, average of duplicate runs

Molecule: O=c1c2ccccc2sc2ccccc12 [2a, thioxanthone]
- Conversion of diazirine 1 [1, 9]: 71% and > 70%
- λmax of first absorption band ([2]; Fig. 1a, footnote a (footnote text not shown; a = 1:1 DMSO/H2O in Supplementary Fig. 4)): 385 nm
- λmax ([2]; Supplementary Fig. 4): 387 nm
- Conversion of aryl azide S3 [3, 10]: 77%
- Triplet energy (ET, E0–0,T1) [4]: 67.4 kcal/mol

Molecule: CC(C)(C)c1ccnc(-c2cc(C(C)(C)C)ccn2)c1.F[P-](F)(F)(F)(F)F.Fc1c[c-]c(-c2ccc(C(F)(F)F)cn2)c(F)c1.Fc1c[c-]c(-c2ccc(C(F)(F)F)cn2)c(F)c1.[Ir+3] [3b, [Ir(dF(CF3)ppy)2(dtbbpy)]PF6]
- λmax ([2]; Supplementary Fig. 4, 1:1 DMSO/H2O): 380 nm
- Singlet oxygen quantum yield ΦΔ ([2]; in acetonitrile): 93%
- Triplet energy (ET, E0–0,T1) [4]: 60.1 kcal/mol

Molecule: O=C1OC2(c3ccccc31)c1cc(Br)c(O)c(Br)c1Oc1c2cc(Br)c(O)c1Br [EY, eosin Y]
- Cytotoxicity (in words) [5]: do not induce cytotoxicity

Molecule: N[C@@H](CCC(=O)N[C@@H](CS)C(=O)NCC(=O)O)C(=O)O [GSH, glutathione]
- Quantum yield of electron transfer ΦeT to triplet state of 4 [6]: 73%

Molecule: Cn1c2nc(=O)[nH]c(=O)c-2cc2ccccc21 [compound 4, deazaflavin]
- Conversion of diazirine 1 ([1]; 1:1 DMSO/H2O, 450 nm 15 min): 85%
- Conversion of aryl azide S3 [3, 10]: 100%

Molecule: Cn1c2nc(=O)n(CC(=O)NCCOCCOCCCCCCCl)c(=O)c-2cc2ccccc21 [compound 15]
- CP50 [7]: 2,063 nM
- CP50 (treatment concentration where 50% of the HaloTags are labelled) [8]: 198 ± 79.2 nM

Molecule: Ir[dFCF3CO2Hppy]2[diolbpy] [3a]
- Cytotoxicity (in words) [5]: do not induce cytotoxicity
- λmax ([2]; Supplementary Fig. 4): 380 nm
- Conversion of aryl azide S3 [3, 10]: 84%
- Triplet energy (ET, E0–0,T1) [4]: 60.1 kcal/mol

Molecule: MeO-thioxanthone [2b]
- Conversion of diazirine 1 [1, 9]: < 5%
- Conversion of aryl azide S3 [3, 10]: 61%

Molecule: Riboflavin tetraacetate [RTA]
- Conversion of aryl azide S3 ([3]; pH 7.4): 69%

Molecule: diMeO-alloxazine [S2]
- λmax ([2]; Supplementary Fig. 4): 396 nm
- Conversion of aryl azide S3 [3, 10]: 94%

Molecule: diMeO-deazaflavin [S1]
- Conversion of diazirine 1 [1, 9]: < 50% and 44%
- λmax ([2]; Supplementary Fig. 4): 418 nm
- Conversion of aryl azide S3 [3, 10]: 79%

Reference: paper PMC12669049, “Energy-transfer photoproximity labelling in live cells using an organic cofactor” (Nature Chemistry, 2025)
